The text below walks through data of patent publication US20230279001A1, “IMIDAZO[1,2-A]PYRIDINE COMPOUNDS FOR THE TREATMENT OF AUTOIMMUNE DISEASE” (Hoffmann-La Roche Inc., priority 2020, published 2023).

Series [1] in a line: Human microsome stability assay. It counts as in vitro ADME. Particulars: human liver microsomes, 1 μM test compound, 37° C., NADPH regenerating system. How it is done: The human microsomal stability assay is used for early assessment of metabolic stability of a test compound in human liver microsomes.
Human liver microsomes (Cat. NO.: 452117, Corning, USA; Cat. NO.: H2610, Xenotech, USA) were preincubated with test compound for 10 minutes at 37° C. in 100 mM potassium phosphate buffer, pH 7.4. The reactions were initiated by adding NADPH regenerating system. The final incubation mixtures contained 1 μM test compound, 0.5 mg/mL liver microsomal protein, 1 mM MgCl2, 1 mM NADP, 1 unit/mL isocitric dehydrogenase and 6 mM isocitric acid in 100 mM potassium phosphate buffer, pH 7.4. After incubation times of 0, 3, 6, 9, 15 and 30 minutes at 37° C., 300 μL of cold acetonitrile (including internal standard) was added to 100 μL incubation mixture to terminate the reaction. Following precipitation and centrifugation, the amount of compound remaining in the samples were determined by LC-MS/MS. Controls of no NADPH regenerating system at zero and 30 minutes were also prepared and analyzed.
(Microsomes from liver hold many membrane-bound enzymes, among them those of drug oxidation.)

A further series concerns the target hERG channel (Homo sapiens (Human), UniProt Q12809). Nature of the series: hERG channel inhibition assay (patch-clamp, CHO cells). The conditions noted are these: for IC50 / IC20: CHO hERG cells, whole-cell patch-clamp; for IC20: human, CHO cells stably expressing hERG channels; for hERG IC20/TLR7 IC50 / hERG IC20/TLR8 IC50 / hERG IC20/TLR9 IC50: safety ratio. It counts as cell-based. How it is done:
The hERG K^+ channels were cloned in humans and stably expressed in a CHO (Chinese hamster ovary) cell line. CHOhERG cells were used for patch-clamp (voltage-clamp, whole-cell) experiments. Cells were stimulated by a voltage pattern to activate hERG channels and conduct IKhERG currents (rapid delayed outward rectifier potassium current of the hERG channel). After the cells were stabilized for a few minutes, the amplitude and kinetics of IKhERG were recorded at a stimulation frequency of 0.1 Hz (6 bpm). Thereafter, the test compound was added to the preparation at increasing concentrations. For each concentration, an attempt was made to reach a steady-state effect, usually, this was achieved within 3-10 min at which time the next highest concentration was applied. The amplitude and kinetics of IKhERG are recorded in each concentration of the drug which were compared to the control values (taken as 100%). (references: Redfern W S, Carlsson L, Davis A S, Lynch W G, MacKenzie I, Palethorpe S, Siegl P K, Strang I, Sullivan A T, Wallis R, Camm A J, Hammond T G. 2003; Relationships between preclinical cardiac electrophysiology, clinical QT interval prolongation and torsade de pointes for a broad range of drugs: evidence for a provisional safety margin in drug development. Cardiovasc. Res. 58:32-45, Sanguinetti M C, Tristani-Firouzi M. 2006; hERG potassium channels and cardiac arrhythmia. Nature 440:463-469, Webster R, Leishman D, Walker D. 2002; Towards a drug concentration effect relationship for QT prolongation and torsades de pointes. Curr. Opin. Drug Discov. Devel. 5:116-26).

A further series concerns TLR7 and TLR8. Nature of the series: Human PBMC cell-based assay, TLR7 and TLR8. The conditions noted are these: R848 at 1 μg/mL, overnight, cytokine readout, read-out: hPBMC/TLR78 IC50. From the text: Unlike the HEK reporter cell lines, human peripheral blood mononuclear cell (PBMC) represents primary human immune cells in blood mainly consisting of lymphocytes, monocytes, and dendritic cells. These cells express TLR7, TLR8, or TLR9, and therefore are natural responders to respective ligand stimulation. Upon activation of these TLRs, PBMCs secrete similar cytokines and chemokines in vitro and in vivo, and therefore the in vitro potency of a TLR7/8/9 antagonist in human PBMC is readily translatable to its pharmacodynamics response in vivo.
Human peripheral blood mononuclear cells (PBMC) were isolated from freshly-drawn lithium-heparinized (Lithium Heparin Plus blood Collection tube, BD Vacutainer®) healthy donor whole blood by density gradient (Ficoll-Paque™ PLUS, GE Healthcare life Sciences). Briefly, 50 mL of blood was diluted with 25 mL PBS (without Ca^2+, Mg^2+) in a 50 mL conical tube with porous barrier (Leucosep tube, Greiner bio-one), where 15.5 mL Ficoll-Paque was under laid after spinning. Tubes were centrifuged for 20 minutes at 800×g (1946 rpm) with the brake in the off position, and PBMC were collected from the buffy coat. Cells were then washed twice in PBS, and red blood cells were lysed by suspension in 2 mL (Red Blood Cell Lysis Buffer, Alfa Aesar) for 5-10 minutes at room temperature. After a final wash in PBS, PBMC were resuspended at a final concentration of 2×10^6 cells/mL in RPMI-1640 media with GlutaMAX™ (Gibco) supplemented with 10% Fetal Bovine Serum (Sigma) and plated at 150 μL/well (3×10^5 cells/well) in tissue culture treated round bottom 96-well plates (Corning Incorporated). Antagonist compounds (compounds of this invention) solubilized and serial diluted in 100% DMSO were added in duplicate to cells to yield a final concentration of 1% DMSO (v/v). […] Cell culture supernatants were collected, and levels of various human cytokines were assessed by Luminex assay (ProcartaPlex™ Multiplex Immunoassay, Invitrogen) or ELISA procedure according to the manufacturer's recommended protocol (eBioscience, ThermoFisher Scientific). […]

Molecules are shown by their SMILES.

Chain of hERG channel (Q12809 whole entry): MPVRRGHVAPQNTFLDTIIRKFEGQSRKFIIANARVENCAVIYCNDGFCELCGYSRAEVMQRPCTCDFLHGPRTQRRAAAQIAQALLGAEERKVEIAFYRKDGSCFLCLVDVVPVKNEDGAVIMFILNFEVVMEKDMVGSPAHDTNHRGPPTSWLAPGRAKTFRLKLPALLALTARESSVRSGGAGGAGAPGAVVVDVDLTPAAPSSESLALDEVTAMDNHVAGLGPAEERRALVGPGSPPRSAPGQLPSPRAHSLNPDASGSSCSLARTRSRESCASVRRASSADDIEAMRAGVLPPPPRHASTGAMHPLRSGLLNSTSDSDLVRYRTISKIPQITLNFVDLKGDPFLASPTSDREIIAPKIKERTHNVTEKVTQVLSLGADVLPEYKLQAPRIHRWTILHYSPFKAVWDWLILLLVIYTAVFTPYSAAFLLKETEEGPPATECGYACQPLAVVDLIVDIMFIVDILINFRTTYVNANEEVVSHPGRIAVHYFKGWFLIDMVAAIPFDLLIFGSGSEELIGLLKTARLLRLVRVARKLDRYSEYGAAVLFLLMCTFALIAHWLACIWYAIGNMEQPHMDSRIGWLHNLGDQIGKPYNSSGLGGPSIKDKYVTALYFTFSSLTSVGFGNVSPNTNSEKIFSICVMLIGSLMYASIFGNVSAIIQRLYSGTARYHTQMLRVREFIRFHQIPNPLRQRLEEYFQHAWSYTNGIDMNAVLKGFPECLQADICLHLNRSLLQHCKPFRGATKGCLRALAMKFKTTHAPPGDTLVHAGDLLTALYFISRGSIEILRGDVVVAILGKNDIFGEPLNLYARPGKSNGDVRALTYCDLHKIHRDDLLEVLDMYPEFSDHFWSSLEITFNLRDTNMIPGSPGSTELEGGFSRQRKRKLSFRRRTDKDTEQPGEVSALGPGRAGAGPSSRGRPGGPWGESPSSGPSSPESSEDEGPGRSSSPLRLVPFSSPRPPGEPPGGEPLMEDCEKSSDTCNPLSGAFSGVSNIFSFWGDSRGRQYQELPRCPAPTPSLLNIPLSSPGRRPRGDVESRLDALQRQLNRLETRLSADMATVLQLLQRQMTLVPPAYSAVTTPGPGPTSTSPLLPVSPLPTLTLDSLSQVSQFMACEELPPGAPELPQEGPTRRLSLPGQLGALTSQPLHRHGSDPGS

In the case of `Cc1cn2cc(-c3ccc(N4CCC(N)CC4)nc3C(C)C)cc(C)c2n1` [Example 4, 1-[5-(2,8-dimethylimidazo[1,2-a]pyridin-6-yl)-6-isopropyl-2-pyridyl]piperidin-4-amine], the “Clearance of Human microsome” value in series [1] is 8.25 mL/min/kg. On hERG channel, the IC50 was over 10 µM, the IC20 amounted to 4.21 µM, the “hERG IC20/TLR7 IC50” value is 471.9 and the “hERG IC20/TLR8 IC50” value was determined as 1448.2. Further, the “hERG IC20/TLR9 IC50” value on hERG channel was 27.2.
For the compound `COc1nc(N2CCC(N3CCNCC3)CC2)ccc1-c1cc(C)c2nccn2c1` [Example 25, 6-[2-methoxy-6-(4-piperazin-1-yl-1-piperidyl)-3-pyridyl]-8-methyl-imidazo[1,2-a]pyridine], the “Clearance of Human microsome” value in series [1] worked out at 6.15 mL/min/kg. Also, the IC50 in the series with TLR7 and TLR8 was found to be 4.5 nM. Besides, on hERG channel, the IC50 is over 20 µM, the 20% effect level (IC20) was put at 5.78 µM, the “hERG IC20/TLR7 IC50” value stood at 837.6 and the “hERG IC20/TLR8 IC50” value came to 516.0. Also, the “hERG IC20/TLR9 IC50” value at hERG channel was 62.8.
Turning to `Cc1cc(-c2cc(C)c3nccn3c2)cnc1N1CCC(N2CCN(C)CC2)CC1` [Example 9, 8-methyl-6-[5-methyl-6-[4-(4-methylpiperazin-1-yl)-1-piperidyl]-3-pyridyl]imidazo[1,2-a]pyridine], in series [1], the “Clearance of Human microsome” value came out at 7.20 mL/min/kg. The IC50 in the series with TLR7 and TLR8 amounted to 8 nM.
As for `CCc1nc(N2CCC(N3C[C@@H](N)[C@H](OC)C3)CC2)ccc1-c1cc(C)c2nccn2c1` [Example 15, (3R,4R)-1-[1-[6-ethyl-5-(8-methylimidazo[1,2-a]pyridin-6-yl)-2-pyridyl]-4-piperidyl]-4-methoxy-pyrrolidin-3-amine], the “Clearance of Human microsome” value in series [1] is 6.15 mL/min/kg. Moreover, on hERG channel, the IC50 is over 20 µM, the 20% effect level (IC20) was put at 8.36 µM, the “hERG IC20/TLR7 IC50” value is 2144.2 and the “hERG IC20/TLR8 IC50” value is 2090. For the same compound, on hERG channel, the “hERG IC20/TLR9 IC50” value was 38.7.
In the case of `CCc1cc(-c2cc(C)c3nccn3c2)cnc1N1CCC2(CCNCC2)CC1` [Example 22, 3-[3-ethyl-5-(8-methylimidazo[1,2-a]pyridin-6-yl)-2-pyridyl]-3,9-diazaspiro[5.5]undecane], the “Clearance of Human microsome” value in series [1] amounted to 6.15 mL/min/kg.
As to `Cc1cn2cc(-c3ccc(N4CCC(N5CCNCC5)CC4)nc3C(F)F)cc(C)c2n1` [Example 11, 6-[2-(difluoromethyl)-6-(4-piperazin-1-yl-1-piperidyl)-3-pyridyl]-2,8-dimethyl-imidazo[1,2-a]pyridine], the “Clearance of Human microsome” value in series [1] is recorded as 7.02 mL/min/kg.
For the compound `Cc1cn2cc(-c3ccc(N4CCC(N5CC(C)(N)C5)CC4)nc3C(F)F)cc(C)c2n1` [Example 12, 1-[1-[6-(difluoromethyl)-5-(2,8-dimethylimidazo[1,2-a]pyridin-6-yl)-2-pyridyl]-4-piperidyl]-3-methyl-azetidin-3-amine], in series [1], the “Clearance of Human microsome” value is recorded as 6.15 mL/min/kg. Besides, the IC50 in the series on TLR7 and TLR8 came out at 16 nM.
As to `Cc1cn2cc(-c3ccc(N4CCC(N5CCNCC5)CC4)nc3C(C)C)cc(C)c2n1` [Example 3, 6-[2-isopropyl-6-(4-piperazin-1-yl-1-piperidyl)-3-pyridyl]-2,8-dimethyl-imidazo[1,2-a]pyridine], in series [1], the “Clearance of Human microsome” value is 6.15 mL/min/kg.
Take `CCc1nc(N2CCC(C)(N)CC2)ccc1-c1cc(C)c2nc(C)cn2c1` [Example 20, 1-[5-(2,8-dimethylimidazo[1,2-a]pyridin-6-yl)-6-ethyl-2-pyridyl]-4-methyl-piperidin-4-amine]: at hERG channel, the IC50 was over 20 µM, the IC20 was over 10 µM, the “hERG IC20/TLR7 IC50” value is reported as over 1666.7 and the “hERG IC20/TLR8 IC50” value is over 636.9. Also, the “hERG IC20/TLR9 IC50” value on hERG channel is given as over 44.2.
`Cc1cc(-c2ccc(N3CCC(N4CCNCC4)CC3)nc2C(F)F)cn2ccnc12` [Example 10, 6-[2-(difluoromethyl)-6-(4-piperazin-1-yl-1-piperidyl)-3-pyridyl]-8-methyl-imidazo[1,2-a]pyridine]: the “Clearance of Human microsome” value in series [1] is 9.15 mL/min/kg.
On the same count and under the same terms, the result for `CCc1nc(N2CCC(N3CC4(CNCCO4)C3)CC2)ccc1-c1cc(C)c2nccn2c1` [Example 14, 2-[1-[6-ethyl-5-(8-methylimidazo[1,2-a]pyridin-6-yl)-2-pyridyl]-4-piperidyl]-5-oxa-2,8-diazaspiro[3.5]nonane] reads 9.45 mL/min/kg.

Usually IC20 stands for the concentration needed for an effect of 20%. Low readings indicate an effect from little substance, high ones a need for much substance.
